Experiments:
[1] = Elution of bupivacaine from spray-coated ureteral stents in aqueous buffers (Example 1, FIG. 7); format: physicochemical; details: for time to release/elute from coated stent (in words): ionic form coated on stent, aqueous environment, same conditions, hydrochloride
Text: (§1) An approximately 0.6% solution of bupivacaine having a tertiary amine in the non-ionic form (formula (2a) above) in dichloromethane was loaded into a syringe mounted onto a syringe pump and connected to a tube that carried the solution to an ultrasonic nozzle (Model 06-05108—Sono-Tek Co., Poughkeepsie, N.Y. 12547.) A nozzle was 6 mm diameter, 11 mm long and used with a nominal frequency of 120 kHz. Air was purged from the solution line and the spray nozzle primed with the solution. The coating chamber was purged with nitrogen to attain an oxygen concentration below 100 ppm. The solution was sprayed onto ureteral stent substrates 20 to 280 mm long (polyurethane double pigtail soflex ureteral stent, Cook Incorporated (Bloomington, Ind.)). A smooth, uniform coating was observed. Control stents were coated with the same concentration of Bupivacaine.HCl using the above coating method.
The stents were placed in solutions at different pH values to test the elution of bupivacaine over time. […] Acetic acid/sodium acetate was used for the pH 4.5 buffer, 0.1M phosphate-buffered solution (PBS) for the pH 7.0 buffer, and sodium carbonate for the pH 9.5 buffer.

[2] = Exposure of coated ureteral stent to water / aqueous environment (FIGS. 8, 10); format: physicochemical
Text: as §1
FIGS. 8-11 depict photomicrographs of the coatings showing the uniformity and tenacity of the non-ionic coatings, in contrast to the water-soluble ionic coatings. […] FIG. 9 depicts a relatively rough, crystalline coating 91 of bupivacaine-HCl on a ureteral stent 90, on the left, and the same stent after a one-minute ex vivo exposure to a pig ureter.
FIG. 11 then depicts the same type of stent 110 with a coating 114 of the non-ionic form of bupivacaine after 24 hours in an ex vivo test with a pig ureter.

[3] = cited from earlier work
[4] = cited from earlier work; remark: listed apart in the source

In the case of `CCCCN1CCCCC1C(=O)Nc1c(C)cccc1C.Cl` (stereo not drawn) [Bupivacaine.HCl, 1-butyl-N-(2,6-dimethylphenyl)-2-piperidinecarboxamide hydrochloride], the “time to release/elute from coated stent (in words)” value [1] is reported as “within a matter of minutes”, the “time to release/elute from coated stent (in words)” value ([1]; listed as bupivacaine.HCl) is reported as “eluted fully within minutes” and the “state of coating after dipping in water” value ([2]; dipped in water for one minute) is reported as “substantially dissolved”. The “water solubility (in words)” value [3] was “soluble in water”.

In the case of `C[C@@H]1C[C@H]2[C@@H]3CCC4=CC(=O)C=C[C@]4(C)[C@@]3(F)[C@@H](O)C[C@]2(C)[C@@]1(O)C(=O)CO` [Dexamethasone], the “water solubility (in words)” value [3] is given as “practically insoluble in water”.

For `CCCCN1CCCCC1C(=O)Nc1c(C)cccc1C` (stereo not drawn) [bupivacaine, 1-Butyl-N-(2,6-dimethylphenyl)-2-piperidinecarboxamide], the pKa ([4]; Table 1, acidic proton of proton binding site) is listed as 8.09, the “pKa of acidic proton of proton binding site” value ([4]; in water) is listed as “about 8” and the “effect of eluting solution pH on elution rate” value ([1]; increasing the pH from 4.5 to 9.5) is listed as “slightly slowed the rate of bupivacaine elution”. The “period over which release from ureteral stent occurs” value ([1]; non-ionic form coated on ureteral stent, buffers pH 4.5, 7.0, 9.5) was “about 12 days”, the “state of coating after aqueous exposure” value ([2]; exposed to an aqueous environment for several days) was “virtually no effect on the coating” and the solubility ([3]; base or non-ionic form, water) was “about 0.2 mg/mL”. The “water solubility (in words)” value [3] was “only very slightly soluble in water”.

Reference: patent US20120027819A1, “Medical Devices Incorporating a Bioactive and Methods of Preparing Such Devices” (priority 2006, published 2012)
